# Like-named read-outs stand apart in the source and are kept apart here.
# Assays:
# [1] = target: T1, β adrenergic receptors (β1) (Canis lupus familiaris, UniProt P79148); test: Antagonism of the effects of isoprenaline, tachycardia (β1), anaesthetized dog, IV; format: in vivo; settings: for cardioselectivity β1 - β2 / ED50: dog; for cardioselectivity β1 - β2: isoprenaline antagonism, β1 versus β2; for ED50: read-out: ID50 ISOPRENALINE β1; for cardioselective in vivo (selectively inhibit the cardiac receptors): test with isoprenaline
# T1 construct: The dog is anaesthetized using sodium pentobarbital; from tissue; host or cells: whole anaesthetized dog (heart)
# α2 receptor = target: T2, α2 receptor (Rattus norvegicus, UniProt P22909); test: Displacement of 3H clonidine, plasmic membranes of rat brains; format: binding; settings: for affinity for the receptor with clonidine (α2): in vitro
# T2 construct: plasmic membranes of rat brains; from tissue; host or cells: rat brain plasma membranes
# T2 sequence (P22909 1-465): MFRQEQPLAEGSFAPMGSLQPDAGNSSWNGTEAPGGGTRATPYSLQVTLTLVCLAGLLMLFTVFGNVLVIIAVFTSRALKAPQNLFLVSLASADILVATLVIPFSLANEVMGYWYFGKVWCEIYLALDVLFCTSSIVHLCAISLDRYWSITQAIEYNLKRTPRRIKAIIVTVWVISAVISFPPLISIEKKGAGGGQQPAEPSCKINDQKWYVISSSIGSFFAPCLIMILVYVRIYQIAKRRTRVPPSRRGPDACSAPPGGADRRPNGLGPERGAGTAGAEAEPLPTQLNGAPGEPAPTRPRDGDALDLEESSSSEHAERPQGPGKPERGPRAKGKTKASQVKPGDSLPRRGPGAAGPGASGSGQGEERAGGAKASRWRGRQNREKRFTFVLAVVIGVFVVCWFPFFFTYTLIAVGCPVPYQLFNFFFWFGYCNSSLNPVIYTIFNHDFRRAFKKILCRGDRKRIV
# Procedure: (§1) The binding tests are effected on suspensions of plasmic membranes coming from various organs. The suspensions of membranes are placed in incubation with the tritiated ligand and various concentrations of products to be tested. After incubation, each test is filtered on GFB(Whatman) filter, the filters are dried and introduced into counting flasks. The measurement of the radioactivity is assessed by scintillation in a liquid medium.
# (§2) The tests were made on plasmic membranes of rat brains, in the presence of ^3 H clonidine 1.2×10^-9 M (α2 receptor) and of ^3 H WB4101 (N-[2-(2.6dimethoxyphenoxy)ethyl]1.4benzodioxane-2-methylamine), 0.2×10^-9 M (α1 receptor).
# platelet aggregation = test: Anti-aggregating activity, BORN technique, plasma rich in platelets, ADP; format: cell-based, human; settings: human platelet-rich plasma; for IC50: ADP, range over all products tested, read-out: concentration for inhibiting by 50% the maximum rate of aggregation
# Procedure: The anti-aggregating activity of the CM 7743, 7744, 7824, 7854, 7859 and 7874 has been studied according to the BORN technique on plasma rich in platelets of human origin. ADP has been used as indicator of platelet aggregation. […] The required concentration for inhibiting by 50% the maximum rate of aggregation varies from 45 to 100 μM.
# α adrenergic receptors = test: Antagonism of the effects of noradrenaline (pressure response), anaesthetized dog, IV; format: in vivo; settings: 50% inhibition of pressure response to noradrenaline
# Procedure: (§3) The dog is anaesthetized using sodium pentobarbital, administered by the IV route at a dose of 30 mg/kg. A cannula placed in the saphenous vein allows the intra-venous injections of the products. The animal is submitted to intubation and is allowed to breathe spontaneously.
# (§4) The cardiac frequency and the systemic arterial pressure are studied and the variations of these parameters are observed after intra-venous injection of the product to be tested. Each product is tested with increasing doses.
# The antagonism of the products with respect to the vascular effects provoked by the IV administration of noradrenaline on the α adrenergic receptors has been sought. The results presented in Table III are expressed in ID50 : it is the dose (mg/kg) which provokes the inhibition by 50% of the pressure response due to the IV administration of noradrenaline.
# [2] = target: T3, β adrenergic receptors (β2) (Canis lupus familiaris, UniProt P54833); test: Antagonism of the effects of isoprenaline, hypotension (β2), anaesthetized dog, IV; format: in vivo; settings: read-out: ID50 ISOPRENALINE β2
# T3 construct: The dog is anaesthetized using sodium pentobarbital; from tissue; host or cells: whole anaesthetized dog (vasculature)
# Procedure: as §3, §4
# The antagonism of the products with respect to the β stimulant cardio-vascular effects of isoprenaline on the β adrenergic receptors has been sought. […] The last column indicates the cardioselectivity (β1 >β2) or a low cardioselectivity β1 ≥β2, or no cardioselectivity β1 <β2 and β1 =β2.
# β1 receptor = target: T4, β1 receptor (Canis lupus familiaris, UniProt P79148); test: Displacement of 3H dihydroalprenolol, plasmic membranes of hearts of dogs; format: binding, dog; settings: for affinity for β1 receptors (heart) versus β2 receptors (lungs): in vitro, compared with lung β2 (A5)
# T4 construct: plasmic membranes of hearts of dogs (β1 receptor); from tissue; host or cells: dog heart plasma membranes
# Procedure: as §1
# (§5) The tests were made on plasmic membranes of hearts of dogs (β1 receptor) and lungs of rats (β2 receptors), in the presence of ^3 H dihydroalprenolol 4×10^-9 M.
# β2 receptors = target: T5, β2 receptors (Rattus norvegicus, UniProt P10608); test: Displacement of 3H dihydroalprenolol, plasmic membranes of lungs of rats; format: binding
# T5 construct: lungs of rats (β2 receptors); from tissue; host or cells: rat lung plasma membranes
# Procedure: as §1, §5
# [3] = Cardiac frequency and arterial pressure in the anaesthetized dog after intravenous injection; format: in vivo; settings: i.v. route, anaesthetised dog
# Procedure: as §3, §4
# α1 receptor = test: Displacement of 3H WB 4101, plasmic membranes of rat brains; format: binding; settings: for EC50: read-out: EC50 of DISPLACEMENT of 3H WB 4101, rat brain membranes, 3H WB4101 0.2×10^-9 M
# Procedure: as §1, §2
# [4] = dog heart membranes, 3H dihydroalprenolol 4×10^-9 M
# [5] = IV, 50% inhibition of isoprenaline hypotension
# [6] = rat brain membranes, 3H clonidine 1.2×10^-9 M
# [7] = IV, 50% inhibition of isoprenaline tachycardia
# [8] = rat lung membranes, 3H dihydroalprenolol 4×10^-9 M
# T3 sequence (P54833 whole entry): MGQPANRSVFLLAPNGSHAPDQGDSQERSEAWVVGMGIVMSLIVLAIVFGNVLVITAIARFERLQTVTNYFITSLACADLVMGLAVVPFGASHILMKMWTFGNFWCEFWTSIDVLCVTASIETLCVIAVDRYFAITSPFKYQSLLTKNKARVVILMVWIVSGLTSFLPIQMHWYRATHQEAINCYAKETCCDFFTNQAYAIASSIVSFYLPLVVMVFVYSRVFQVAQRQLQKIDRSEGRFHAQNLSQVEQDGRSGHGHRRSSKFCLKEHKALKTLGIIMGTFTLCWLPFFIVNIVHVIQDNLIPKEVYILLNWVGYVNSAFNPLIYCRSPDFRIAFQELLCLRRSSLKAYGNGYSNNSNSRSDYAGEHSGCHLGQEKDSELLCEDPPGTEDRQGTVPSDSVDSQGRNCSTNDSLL
# T5 sequence (P10608 whole entry): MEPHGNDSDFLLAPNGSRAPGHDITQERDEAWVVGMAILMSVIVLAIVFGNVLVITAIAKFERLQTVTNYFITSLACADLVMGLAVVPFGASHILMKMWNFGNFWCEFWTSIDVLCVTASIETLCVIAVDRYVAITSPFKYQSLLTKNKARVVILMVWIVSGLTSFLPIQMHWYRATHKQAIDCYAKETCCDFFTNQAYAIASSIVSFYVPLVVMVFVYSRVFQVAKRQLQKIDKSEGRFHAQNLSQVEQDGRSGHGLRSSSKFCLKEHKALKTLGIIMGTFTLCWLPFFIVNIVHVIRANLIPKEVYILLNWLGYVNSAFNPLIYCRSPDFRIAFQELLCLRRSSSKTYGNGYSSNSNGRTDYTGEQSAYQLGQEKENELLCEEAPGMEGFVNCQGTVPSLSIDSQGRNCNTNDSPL
# T4 sequence (P79148 whole entry): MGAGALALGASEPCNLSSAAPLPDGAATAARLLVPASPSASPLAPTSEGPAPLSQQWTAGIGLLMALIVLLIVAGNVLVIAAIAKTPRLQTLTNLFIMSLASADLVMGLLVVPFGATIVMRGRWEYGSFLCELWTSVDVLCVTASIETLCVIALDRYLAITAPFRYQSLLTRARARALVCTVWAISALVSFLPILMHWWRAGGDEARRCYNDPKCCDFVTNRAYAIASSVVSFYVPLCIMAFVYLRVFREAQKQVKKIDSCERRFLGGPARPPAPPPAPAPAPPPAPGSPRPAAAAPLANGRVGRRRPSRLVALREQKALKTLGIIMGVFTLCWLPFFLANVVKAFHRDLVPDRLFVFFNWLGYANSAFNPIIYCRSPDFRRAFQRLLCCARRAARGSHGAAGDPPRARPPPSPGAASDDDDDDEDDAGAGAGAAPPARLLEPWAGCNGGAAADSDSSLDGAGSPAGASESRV
# T1 sequence (P79148 whole entry): as above
SMILES,cardioselectivity β1 - β2 ([1]; IV),ED50 ([1]; iv) [mg/kg],affinity for the receptor with clonidine (α2) (α2 receptor),inhibition of the platelet response with respect to the ADP (platelet aggregation),IC50 (platelet aggregation) [nM],ID50 NORADRENALINE α (α adrenergic receptors) [mg/kg],ED50 ([2]; iv) [mg/kg],cardioselective in vivo (selectively inhibit the cardiac receptors) [1],EC50 (β1 receptor; [4]) [nM],affinity for β1 receptors (heart) versus β2 receptors (lungs) (β1 receptor),"ED50 [2, 5] [mg/kg]",EC50 (β1 receptor) [nM],EC50 (β2 receptors) [nM],EC50 (α2 receptor; [6]) [nM],"ED50 [1, 7] [mg/kg]",EC50 (β2 receptors; [8]) [nM],reduction in the peripheral arterial pressure [3],EC50 (α1 receptor) [nM],EC50 (α2 receptor) [nM],affinity for the receptor with WB 4101 (α1) (α1 receptor; in vitro)
CCC(=O)c1ccc(OCC(O)CNC(C)Cc2c[nH]c3ccccc23)c(Cl)c1 (stereo not drawn) [compound 7743],β1 ≥ β2 (low cardioselectivity β1 ≥β2),1 to 3,no affinity,inhibited the platelet response,45000 to 100000,3,≥ 3,–,–,–,–,–,–,–,–,–,–,–,–,–
CCCC(=O)Nc1ccc(OCC(O)CNC(C)Cc2c[nH]c3ccccc23)c(C(C)=O)c1 (stereo not drawn) [compound 7798],β1 > β2 (cardioselectivity (β1 >β2)),1,–,–,–,> 3,–,cardioselective in vivo,550,clearly greater affinity for the β1 receptors (heart) than for the β2 receptors (lungs),≥ 3,–,–,–,–,–,–,–,–,–
Cc1cccc(OCC(O)CNC(C)Cc2c[nH]c3ccccc23)c1 (stereo not drawn) [compound 7782],β1 > β2 (cardioselectivity (β1 >β2)),0.1 to 0.3,no affinity,–,–,0.3,–,cardioselective in vivo,–,–,≥ 3,53,61.5,30,–,–,–,–,–,–
Cc1ccccc1OC[C@H](O)CN[C@@H](CO)Cc1c[nH]c2ccccc12 [compound 7902],β1 < β2 (no cardioselectivity β1 <β2),–,–,–,–,> 3,–,–,7400,–,> 3,–,–,–,> 3,3800,reduction in the peripheral arterial pressure,–,–,–
CC(Cc1c[nH]c2ccc(Cl)cc12)NCC(O)COc1ccc(CC(N)=O)cc1 (stereo not drawn) [compound 7859],β1 > β2 (cardioselectivity (β1 >β2)),0.3 to 1,no affinity,inhibited the platelet response,45000 to 100000,0.3 to 3,–,cardioselective in vivo,625,–,≥ 3,–,–,–,–,1000,–,2.3,19,–
Cc1ccccc1OC[C@@H](O)CN[C@H](CO)Cc1c[nH]c2ccccc12 [compound 7898],β1 ≥ β2 (low cardioselectivity β1 ≥β2),–,–,–,–,> 3,–,–,51,–,0.3 to 1,–,–,–,0.1 to 0.3,64,reduction in the peripheral arterial pressure,–,–,–
NC(=O)Cc1ccc(OCC(O)CNCCc2c[nH]c3ccccc23)cc1 (stereo not drawn) [compound 7748],β1 > β2 (cardioselectivity (β1 >β2)),–,no affinity,–,–,1,–,cardioselective in vivo,–,clearly greater affinity for the β1 receptors (heart) than for the β2 receptors (lungs),> 3,–,–,29.5,1 to 3,–,–,2.7,–,–
Cc1ccccc1OCC(O)CNC(C)(C)Cc1c[nH]c2ccccc12 (stereo not drawn) [compound 7854],β1 ≥ β2 (low cardioselectivity β1 ≥β2),–,–,inhibited the platelet response,45000 to 100000,0.1,–,–,16,–,0.02 to 0.1,–,–,6,0.01 to 0.1,3.7,–,320,–,–
CC(Cc1c[nH]c2ccc(F)cc12)NCC(O)COc1ccccc1 (stereo not drawn) [compound 40038],β1 > β2 (cardioselectivity (β1 >β2)),0.1,no affinity,–,–,0.1,–,cardioselective in vivo,–,–,> 0.3,34,29,–,–,–,reduction in the peripheral arterial pressure,–,–,–
Cc1ccccc1OCC(O)CNC(C)Cc1c[nH]c2ccc(F)cc12 (stereo not drawn) [compound 7983],β1 > β2 (cardioselectivity (β1 >β2)),0.3,–,–,–,> 0.3,> 0.3,cardioselective in vivo,–,–,–,19,47,–,–,–,–,600,–,have an affinity
CC(Cc1c[nH]c2ccccc12)NCC(O)COc1ccccc1C(=O)c1ccccc1 (stereo not drawn) [compound 7904],β1 ≥ β2 (low cardioselectivity β1 ≥β2),≤ 0.1,–,–,–,> 0.3,–,–,–,–,0.1,7.9,14,–,–,–,–,–,–,–
Cc1ccccc1OC[C@@H](O)CN[C@@H](CO)Cc1c[nH]c2ccccc12 [compound 7899],β1 ≥ β2 (low cardioselectivity β1 ≥β2),–,–,–,–,> 3,–,–,135,–,0.3 to 1,–,–,–,0.3,82,reduction in the peripheral arterial pressure,–,–,–

# Source: patent US4404217A, “3-Indolyl alkylene amino propanols and cardiovascular compositions thereof” (C. M. Industries, priority 1979, dated 1983)
